According to the NIST ThermoML archive (doi:10.1016/j.jct.2011.06.009):
± gives the expanded uncertainty stated by the source.

Assay: refractive index (Na D-line) (dimensionless)
Details: 101.33 kPa, Liquid, Standard Abbe refractometry

refractive index (298.1 K)	refractive index (293.1 K)	Structure (SMILES)
1.4509 ± 0.0008		CCCC[n+]1ccc(C)cc1.F[B-](F)(F)F [1-butyl-4-methylpyridinium tetrafluoroborate]
	1.422 ± 0.0008	CCCCCCCCCCCC [dodecane]
	1.4915 ± 0.0008	CCCc1ccccc1 [propylbenzene]

Structure (SMILES)	refractive index (298.1 K)	refractive index (293.1 K)
CCCCc1ccccc1 [butylbenzene]		1.4895 ± 0.0008
